Source: US6087390A, “Derivatives of antifungal substance BE-31405 and process for producing the same” (Banyu Pharmaceutical Co., Ltd., priority 1997, dated 2000)
≈ marks a conversion by molar mass, not a printed value.

System: Candida albicans IFO1385
Experiment: Antifungal activity: MIC against Candida albicans IFO1385 on yeast nitrogen base agar
Format: cell-based
Settings: 48 h; 2 days of incubation at 37° C., yeast nitrogen base agar with 1% glucose and 0.25% dipotassium hydrogen phosphate; single use; read-out: MIC
Protocol: ^b MICs were determined against Candida albicans IFO1385 after 2 days
of incubation of the test strain at 37° C. on yeastnitrogen base
agar (containing 1% glucose and 0.25% dipotassium hydrogen phosphate,

| MIC | Compound |
| --- | --- |
| 6.25 µg/mL (≈ 10.9 µM) | CCCCC(=O)OC1C2OC3(OCC45CC6C(C)CCC6C6(C=O)CC4C=C(C(C)C)C65C(=O)O)OC2OC1C3O (stereo not drawn) [Compound 10, 8a-[[[6-(n-valeryloxy)tetrahydro-7-hydroxy-2,5-methanofuro[2,3-d]-1,3-dioxol-2-yl]oxy]methyl]-4-formyl-4,4a,5,6,7,7a,8,8a-octahydro-7-methyl-3-(1-methylethyl)-1,4-methano-s-indacene-3a(1H)-carboxylic acid] |
| 3.13 µg/mL (≈ 5.32 µM) | CCCCCC(=O)OC1C2OC3(OCC45CC6C(C)CCC6C6(C=O)CC4C=C(C(C)C)C65C(=O)O)OC2OC1C3O (stereo not drawn) [Compound 13, 8a-[[[6-(n-hexanoyloxy)tetrahydro-7-hydroxy-2,5-methanofuro[2,3-d]-1,3-dioxol-2-yl]oxy]methyl]-4-formyl-4,4a,5,6,7,7a,8,8a-octahydro-7-methyl-3-(1-methylethyl)-1,4-methano-s-indacene-3a(1H)-carboxylic acid] |
| 1.56 µg/mL (≈ 2.59 µM) | CCCCCCC(=O)OC1C2OC3(OCC45CC6C(C)CCC6C6(C=O)CC4C=C(C(C)C)C65C(=O)O)OC2OC1C3O (stereo not drawn) [Compound 14, 8a-[[[6-(n-heptanoyloxy)tetrahydro-7-hydroxy-2,5-methanofuro[2,3-d]-1,3-dioxol-2-yl]oxy]methyl]-4-formyl-4,4a,5,6,7,7a,8,8a-octahydro-7-methyl-3-(1-methylethyl)-1,4-methano-s-indacene-3a(1H)-carboxylic acid] |
| 1.56 µg/mL (≈ 2.78 µM) | CCCCCOC1C2OC3(OCC45CC6C(C)CCC6C6(C=O)CC4C=C(C(C)C)C65C(=O)O)OC2OC1C3O (stereo not drawn) [Compound 41, 8a-[[[6-(pentyloxy)tetrahydro-7-hydroxy-2,5-methanofuro[2,3-d]-1,3-dioxol-2-yl]oxy]methyl]-4-formyl-4,4a,5,6,7,7a,8,8a-octahydro-7-methyl-3-(1-methylethyl)-1,4-methano-s-indacene-3a(1H)-carboxylic acid] |
| 3.13 µg/mL (≈ 5.58 µM) | CC(C)CCOC1C2OC3(OCC45CC6C(C)CCC6C6(C=O)CC4C=C(C(C)C)C65C(=O)O)OC2OC1C3O (stereo not drawn) [Compound 44, 8a-[[[6-(isopentyloxy)tetrahydro-7-hydroxy-2,5-methanofuro[2,3-d]-1,3-dioxol-2-yl]oxy]methyl]-4-formyl-4,4a,5,6,7,7a,8,8a-octahydro-7-methyl-3-(1-methylethyl)-1,4-methano-s-indacene-3a(1H)-carboxylic acid] |
| 1.56 µg/mL (≈ 2.71 µM) | CCCCCCOC1C2OC3(OCC45CC6C(C)CCC6C6(C=O)CC4C=C(C(C)C)C65C(=O)O)OC2OC1C3O (stereo not drawn) [Compound 47, 8a-[[[6-(hexyloxy)tetrahydro-7-hydroxy-2,5-methanofuro[2,3-d]-1,3-dioxol-2-yl]oxy]methyl]-4-formyl-4,4a,5,6,7,7a,8,8a-octahydro-7-methyl-3-(1-methylethyl)-1,4-methano-s-indacene-3a(1H)-carboxylic acid] |
| 3.13 µg/mL (≈ 4.96 µM) | CCCCCCCCCCOC1C2OC3(OCC45CC6C(C)CCC6C6(C=O)CC4C=C(C(C)C)C65C(=O)O)OC2OC1C3O (stereo not drawn) [Compound 50, 8a-[[[6-(decyloxy)tetrahydro-7-hydroxy-2,5-methanofuro[2,3-d]-1,3-dioxol-2-yl]oxy]methyl]-4-formyl-4,4a,5,6,7,7a,8,8a-octahydro-7-methyl-3-(1-methylethyl)-1,4-methano-s-indacene-3a(1H)-carboxylic acid] |

| Compound | MIC |
| --- | --- |
| CCCCOC1C2OC3(OCC45CC6C(C)CCC6C6(C=O)CC4C=C(C(C)C)C65C(=O)O)OC2OC1C3O (stereo not drawn) [Compound 38, 8a-[[[6-(butoxy)tetrahydro-7-hydroxy-2,5-methanofuro[2,3-d]-1,3-dioxol-2-yl]oxy]methyl]-4-formyl-4,4a,5,6,7,7a,8,8a-octahydro-7-methyl-3-(1-methylethyl)-1,4-methano-s-indacene-3a(1H)-carboxylic acid] | 3.13 µg/mL (≈ 5.73 µM) |

Same assay, conditions: 2 days of incubation at 37° C., yeast nitrogen base agar with 1% glucose and 0.25% dipotassium hydrogen phosphate; single use

| Compound | MIC |
| --- | --- |
| CC(=O)O[C@@H]1[C@@H]2O[C@@]3(OC[C@@]45C[C@@H]6[C@H](C)CC[C@H]6[C@@]6(C=O)C[C@@H]4C=C(C(C)C)[C@@]56C(=O)O)O[C@@H]2O[C@@H]1[C@@H]3O [BE-31405] | 50 µg/mL (≈ 93.9 µM) |
| COC1C2OC3(OCC45CC6C(C)CCC6C6(C=O)CC4C=C(C(C)C)C65C(=O)O)OC2OC1C3O (stereo not drawn) [SCH57404 (xylarin), reference compound] | 100 µg/mL (≈ 198 µM) |

System: a certain kind of fungus
Experiment: not given
Settings: in vitro, acidic conditions

| Compound | growth inhibitory (antifungal) activity under acidic conditions |
| --- | --- |
| CC(=O)O[C@@H]1[C@@H]2O[C@@]3(OC[C@@]45C[C@@H]6[C@H](C)CC[C@H]6[C@@]6(C=O)C[C@@H]4C=C(C(C)C)[C@@]56C(=O)O)O[C@@H]2O[C@@H]1[C@@H]3O [BE-31405] | shows growth inhibitory activity against a certain kind of fungus in vitro especially under acidic conditions |

Same assay, conditions: neutral conditions

| Compound | antifungal activity under neutral conditions |
| --- | --- |
| CC(=O)O[C@@H]1[C@@H]2O[C@@]3(OC[C@@]45C[C@@H]6[C@H](C)CC[C@H]6[C@@]6(C=O)C[C@@H]4C=C(C(C)C)[C@@]56C(=O)O)O[C@@H]2O[C@@H]1[C@@H]3O [BE-31405] | the activity remarkably lowers under neutral conditions |
